Literature values as cited in US20230158030A1, “METHODS AND COMPOSITION FOR TREATMENT OF COVID-19 ILLNESS REQUIRING HOSPITALIZATION” (OHIO STATE INNOVATION FOUNDATION, priority 2020, published 2023).

Assays:
[1] = test system: covid-19; settings: active covid-19 syndrome
[2] = test system: T-cell function; settings: TLR agonists, PD1 blockade, CAR-T cells
[3] = test system: pneumococcal pneumonia; settings: murine pneumococcal pneumonia
[4] = test system: influenza A virus
[5] = test system: CAR-T cell mediated cytokine release syndrome; settings: murine CAR-T cytokine release syndrome model
[6] = intranasally to mice starting 72 h after lethal infection

CCN(CCO)CCCC(C)Nc1ccnc2cc(Cl)ccc12 (stereo not shown) [hydroxychloraquine]
benefit among ill patients [1]: antidotal benefit

C=CC(=O)N1CCC[C@@H](n2nc(-c3ccc(Oc4ccccc4)cc3)c3c(N)ncnc32)C1 [ibrutinib, 1-[(3R)-3-[4-amino-3-(4-phenoxyphenyl)pyrazolo[3,4-d]pyrimidin-1-yl]piperidin-1-yl]prop-2-en-1-one]
enhancement of other T-cell based therapies [2]: enhance other T-cell based therapies
antibiotic mediated killing of bacteria [3]: not impaired
monocyte and neutrophil influx into the lung, alveolar macrophage activation, neutrophil influx, cytokine release and plasma leakage [3]: negatively influence
overall survival [4, 6]: improved overall survival
weight loss [4, 6]: diminished weight loss
inflammatory mediators TNFalpha, IL-1beta, IL-6, KC, and MCP-1 ([4]; mice, lethal influenza A): diminished
morphological changes to the lungs ([4]; mice, lethal influenza A): decreased alveolar hemorrhage, interstitial thickening, and the presence of alveolar exudate
T-cell expansion or killing [5]: not abrogating T-cell expansion or killing
survival [5]: improved survival
